Source: the SangsterLogP compilation

test: method code SF-RC, from DOI: 10.1021/acs.jmedchem.5b00440, PMID: 26327138; conditions: pH 7.4

SMILES | logD
Ic1ccc2cc(/C=C/c3ccccc3)sc2c1 | 2.34
CN(C)c1ccc(C=Cc2cc3ccc(I)cc3s2)cc1 | 2.4
CN(C)c1ccc(/C=C/c2cc3ccc(I)cc3s2)cn1 | 2.85
CN(C)c1ccc(/C=C/c2nc3ccc(I)cc3s2)cc1 | 3.15
Ic1ccc2nc(/C=C/c3ccccc3)oc2c1 | 3.95
Ic1ccc2nc(/C=C/c3cccnc3)oc2c1 | 3.35
CN(C)c1ccc(/C=C/c2nc3ccc(I)cc3[nH]2)cn1 | 3.11

Next, values leading:

logD | SMILES
2.11 | CN(C)c1ccc(/C=C/c2cc3ccc(I)cc3o2)cc1
3.25 | CN(C)c1ccc(/C=C/c2nc3ccc(I)cc3s2)cn1
2.95 | Ic1ccc2cc(/C=C/c3cccnc3)sc2c1
2.38 | Ic1ccc2cc(/C=C/c3ccccc3)oc2c1
3.13 | Ic1ccc2cc(/C=C/c3cccnc3)oc2c1
3.15 | Ic1ccc2nc(/C=C/c3cccnc3)[nH]c2c1
3.25 | Ic1ccc2nc(/C=C/c3ccccc3)[nH]c2c1
